Here are results for 49 molecules from patent US11396501B2, “Heteroaryl compounds as CXCR4 inhibitors, composition and method using the same” (CGENETECH (SUZHOU, CHINA) CO., LTD., priority 2017, dated 2022).

The target in assay [1] is T1, CXCR4 (Homo sapiens, UniProt P61073). In words: FLIPR Tetra calcium mobilization assay. Type of assay: cell-based. As to conditions: Human CD4+ T-Cells; CXCL12 added; FLIPR Calcium 4 assay kit. As to the method: FLIPR Tetra Calcium Mobilization Assay The FLIPR Tetra calcium mobilization assay was performed by HD Bioscience. Briefly, The Molecular Devices, Fluorescent Imaging Plate Reader (FLIPR) Tetra was used in this assay. Excitation was achieved through unique placement of LED's within the instrument and emission captured by a CCD camera (EMCCD camera for FI and ICCD camera for luminescence). The homogeneous FLIPR Calcium 4 assay kit from Molecular Devices was used as the fluorescence reagent. Compounds were solubilized in 100% dimethyl sulfoxide (DMSO) to a concentration of 30 mM. A 10-point, 4-fold, intermediate dilution series was created in 100% DMSO with a top concentration of 4 mM and a bottom concentration of 0.01 μM. A near assay ready, direct dilution plate ([…]) was prepared from this compound dilution plate by transferring 1 μL of each dilution of compound in 100% DMSO to a Greiner #781201 plate. In addition, each […] plate also contained positive and negative control wells to define the upper and lower limits for the assay signal. The final assay concentration range of compound was 10 μM to 0.035 nM in 0.5% DMSO. Human CD^4+ T-Cells were isolated from human whole blood and subsequently activated and expanded using a CD3/CD28 expansion kit (Life Technologies). The cells were frozen in ThermoFisher-formulated Recovery Cell Culture Freezing Medium containing 10% Dimethyl sulfoxide (DMSO) and 10% Fetal Bovine Serum (FBS) (ThermoFisher Catalog No. 10100147). When used, cells were resuspended using room temperature 1× HBSS/20 mM HEPES/0.005% P-104 assay buffer, adjusted the volume of the suspension to achieve a cell concentration of 2.5×10^6 cells/mL. 2× Calcium 4 dye (20 μL/well) were added and the mixture were centrifuged briefly ( 10 s) and stopped when it reached 1000 rpm. The plates were allowed to equilibrate before compounds and CXCL12 were added to the plates. The raw data were analyzed using Abase. The percent (%) effect at each concentration of compound was calculated by Abase and was based on and relative to the amount of calcium produced in the positive and negative control wells contained within each assay plate. The concentrations and % effect values for tested compounds were plotted by Abase and the concentration of compound required for 50% effect (IC50) was determined with a four-parameter logistic dose response equation. FIGS. 3 and 4 summarize the results of Compounds A78 and A83 in the calcium mobilization assay.
T1 sequence (P61073 whole entry): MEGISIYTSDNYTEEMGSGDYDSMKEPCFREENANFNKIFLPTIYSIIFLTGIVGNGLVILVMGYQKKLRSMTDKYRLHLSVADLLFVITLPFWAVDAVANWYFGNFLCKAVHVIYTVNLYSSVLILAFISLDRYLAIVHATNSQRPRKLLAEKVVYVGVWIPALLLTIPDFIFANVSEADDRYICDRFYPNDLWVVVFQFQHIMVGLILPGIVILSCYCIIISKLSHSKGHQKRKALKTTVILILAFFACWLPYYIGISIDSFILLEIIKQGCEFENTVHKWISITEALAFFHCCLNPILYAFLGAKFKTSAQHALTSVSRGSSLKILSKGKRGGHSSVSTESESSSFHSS

For assay [2], the target named is T1, CXCR4. The experiment in a line: HPB-ALL CXCR4 competitive binding assay (12G5 binding assay). Further details: HPB-ALL cells were maintained in RPMI-1640 (Gibico) supplemented with 10% FBS (Hyclone); endogenous in cells; host or cells: HPB-ALL cells. The note with it: HPB-ALL cells; competition with APC-conjugated anti-human CXCR4 clone 12G5 at its EC80; 4° C. for 3 h; FACS. As to the method: HPB-ALL CXCR4 Competitive Binding Assay
HPB-ALL cells were maintained in RPMI-1640 (Gibico) supplemented with 10% FBS (Hyclone). APC-conjugated anti-human CXCR4 was from Sungene. EC80 was first determined for 12G5 binding to CXCR4. Then the compounds for testing were added into 96-well plates serially diluted at a ratio of 1:3. Cells were washed once with ice-cold assay buffer (DPBS+2% HI-FBS) and then re-suspended in the same buffer at a final concentration of 1×10^6/mL. Cell suspension was then added into the wells and with the addition of APC-conjugated anti-human CXCR4 clone 12G5 at its EC80 determined. The mix of cell, compounds and APC-conjugated anti-human CXCR4 were incubated at 4° C. for 3 h before addition of 100 μL of 4% PFA. Cells were then washed once and resuspended in assay buffer and examined by FACS. The percent (%) effect at each concentration of compound was calculated and relative to the amount of calcium produced in the positive and negative control wells contained within each assay plate. The concentrations and % effect values for tested compounds were plotted and the concentration of compound required for 50% effect (IC50) was determined. Tables 2 summarize results of the CXCR4 competitive binding assay for selected compounds disclosed in the present disclosure. FIGS. 1-2 depict the IC50 curves of compounds A42 and A43.

Regarding `CCN(Cc1cc(N2CCN(C)CC2)nc(C)n1)c1cc(C)cc2cccnc12` [Compound D32], the half-inhibitory concentration (IC50) in assay [1] was determined as 0.53 nM.

Regarding `Cc1nc(CN(C)c2cc(F)cc3cccnc23)cc(N2CCN(C)C(CO)C2)n1` (stereo not shown) [Compound D53], the IC50 in assay [1] worked out at 6.7 nM.

In the case of `Cc1nc(CN(C)c2cccc3cccnc23)cc(N2CCC(N(C)C)CC2)n1` [Compound D6], the IC50 in assay [1] turned out to be 2.4 nM.

`Cc1nc(CN(C)c2c(CO)ccc3cccnc23)cc(N2CCN(C)CC2)n1` [Compound D56]: in assay [1], the IC50 was found to be 5.5 nM.

In the case of `Cc1nc(CN(C)c2ccc(Br)c3cccnc23)cc(N2CCN(C)CC2)n1` [Compound D41], the half-inhibitory concentration (IC50) in assay [1] is 6.3 nM.

For `C[C@@H](c1ccccn1)N(C)Cc1nc2cccc(N3CCN(C)CC3)n2c1CO` [Compound A96, (S)-(2-((methyl(1-(pyridin-2-yl)ethyl)amino)methyl)-5-(4-methylpiperazin-1-yl)imidazo[1,2-a]pyridin-3-yl)methanol], the IC50 in assay [1] is 0.086 nM.

As to `Cc1nc(CN(C)c2cc(NS(C)(=O)=O)cc3cccnc23)cc(N2CCN(C)CC2)n1` [Compound D58, N-(8-(methyl((2-methyl-6-(4-methylpiperazin-1-yl)pyrimidin-4-yl)methyl)amino)quinolin-6-yl)methane sulfonamide], the IC50 in assay [1] worked out at 55 nM.

Consider `Cc1nc(CN(C)c2cccc3cccnc23)c(C)c(N2CCN(C)CC2)n1` [Compound D33], for which the IC50 in assay [1] is 0.51 nM.

Regarding `Cc1nc(CN(C)[C@@H](C)c2ccccn2)cc(N2CCN(C)CC2CO)n1` (stereo partly shown) [Compound A84], the IC50 in assay [1] was 3 nM.

In the case of `Cc1nc(CN(C)[C@@H](C)c2ccccn2)c(CO)c(N2CCN(C)[C@H](C)C2)n1` [Compound A89], in assay [1], the half-inhibitory concentration (IC50) turned out to be 0.13 nM.

As to `Cc1nc(CN(c2cccc3cccnc23)C2CC2)cc(N2CCN(C)CC2)n1` [Compound D26], the IC50 in assay [1] came to 2.3 nM.

Take `Cc1nc(CN(C)c2cccc3cccnc23)cc(N2CCCN(C)CC2)n1` [Compound D3]: the half-inhibitory concentration (IC50) in assay [1] came to 0.63 nM.

For `Cc1nc(CN(C)c2ccc(C#N)c3cccnc23)cc(N2CCN(C)CC2)n1` [Compound D42], the IC50 in assay [1] was found to be 96 nM.

As for `Cc1nc(CN(C)c2ccc(C)c3cccnc23)cc(N2CCN(C)CC2)n1` [Compound D16], the concentration for half-maximal inhibition (IC50) in assay [1] was 2.7 nM.

`Cc1nc(CN2CCC[C@H]2c2ncccc2C)c(C#N)c(N2CCN(C)CC2)n1` [Compound C34]: in assay [1], the IC50 was 1.8 nM.

On to `C[C@@H](c1ccccn1)N(C)Cc1cc(N2CCN(C)CC2)nc(N)n1` [Compound A83], for which the concentration for half-maximal inhibition (IC50) in assay [1] came out at 0.93 nM.

In assay [2], `CNc1nc(CN(C)C2CCCc3cccnc32)cc(N2CCN(C)CC2)n1` (stereo not shown) [Compound A18] returned a half-maximal inhibitory concentration (IC50) of 43 nM.

Regarding `CN1CCN(c2cc(N(C)CC3CCCc4cccnc43)ncn2)CC1` (stereo not shown) [Compound B1], the IC50 in assay [2] was above 10000 nM.

Take `Cc1nc([C@H]2CCCCN2[C@H]2CCCc3cccnc32)cc(N2CCN(C)CC2)n1` [Compound C6]: the half-maximal inhibitory concentration (IC50) in assay [2] is 3240 nM.

`COCCN1CCN(c2cc(CN(C)C3CCCc4cccnc43)ncn2)CC1` (stereo not shown) [Compound A6] returned an IC50 in assay [2] of 1140 nM.

Take `CN1CCN(c2cc(CN(C)C3CCCc4cccnc43)nc(N(C)CCO)n2)CC1` (stereo not shown) [Compound A15]: in assay [2], the half-maximal inhibitory concentration (IC50) stood at 606 nM.

In turn, `CCN1CCN(c2cc(CN(C)C3c4ncccc4CCC34CC4)nc(C)n2)CC1` (stereo not shown) [Compound A45] registered an IC50 in assay [2] of 886 nM.

For the molecule `CC(C)Nc1nc(CN(C)C2CCCc3cccnc32)cc(N2CCN(C)CC2)n1` (stereo not shown) [Compound A20], the half-inhibitory concentration (IC50) in assay [2] is 210 nM.

In assay [2], `CCN(Cc1cc(N2CCN(C)CC2)nc(C)n1)C1c2ncccc2CCC12CC2` (stereo not shown) [Compound A44] gave an IC50 of 296 nM.

In turn, `Cc1nc(CN(C)[C@H]2CCCc3cccnc32)cc(N2CCN(C)C[C@H]2C)n1` [Compound A63, (S)-N-((6-((R)-2,4-dimethylpiperazin-1-yl)-2-methylpyrimidin-4-yl)methyl)-N-methyl-5,6,7,8-tetrahydroquinolin-8-amine] gave an IC50 in assay [2] of 29 nM.

`COc1nc(CN(C)C2CCCc3cccnc32)cc(N2CCN(C)CC2)n1` (stereo not shown) [Compound A10]: in assay [2], the half-maximal inhibitory concentration (IC50) came out at 23 nM.

In the case of `CSc1nc([C@@H]2CCCN2[C@@H]2CCCc3cccnc32)cc(N2CCN(C)CC2)n1` [Compound C4], in assay [2], the IC50 worked out at 2320 nM.

In turn, `Cc1nc(CN(C)C2CC3(CC3)Cc3cccnc32)cc(N2CCN(C)CC2)n1` (stereo not shown) [Compound A46] registered an IC50 in assay [2] of 161 nM.

For `Cc1nc(CN(C)[C@H]2CCCc3cccnc32)cc(N2CCN(C)C[C@@H]2C)n1` [Compound A64], the 50% inhibitory concentration (IC50) in assay [2] was 21 nM.

`Cc1nc(CN2CCC[C@H]2c2ncccc2C)cc(N2CCN(C)CC2)n1` [Compound C25] displayed an IC50 in assay [2] of 68 nM.

In turn, `Cc1nc(CN(C)[C@H]2CCCc3cccnc32)cc(N2CCN(C)[C@H](C)C2)n1` [Compound A65] returned an IC50 in assay [2] of 13 nM.

Molecule `CN(C)C1CCN(c2cc(CN(C)C3CCCc4cccnc43)ncn2)CC1` (stereo not shown) [Compound A25] showed an IC50 in assay [2] of 100 nM.

On to `Cc1ccc([C@@H]2CCCN2Cc2cc(N3CCN(C)CC3)nc(C)n2)nc1` [Compound C27], for which the half-inhibitory concentration (IC50) in assay [2] was determined as 279 nM.

Turning to `Cc1cccc(C(C)N(C)Cc2cc(N3CCN(C)CC3)nc(C)n2)n1` (stereo not shown) [Compound A56], in assay [2], the half-maximal inhibitory concentration (IC50) turned out to be 131 nM.

`CN1CCN(c2cc(CN(C)C3CCCc4cccnc43)nc(-c3cnn(C)c3)n2)CC1` (stereo not shown) [Compound A21] returned a half-inhibitory concentration (IC50) in assay [2] of 790 nM.

Turning to `Cc1nc(CN(C)[C@H]2CCCc3cccnc32)cc(N2CCN3CCC[C@H]3C2)n1` [Compound A69], the IC50 in assay [2] is 27 nM.

In turn, `CSc1nc([C@@H](C)N(C)[C@H]2CCCc3cccnc32)cc(N2CCN(C)CC2)n1` [Compound A34] had a half-inhibitory concentration (IC50) in assay [2] of 47 nM.

As to `Cc1nc(CN(C)[C@H]2CCCc3cccnc32)cc(N2CCN(C)[C@@H](C)C2)n1` [Compound A66], in assay [2], the IC50 came to 20 nM.

As for `Cc1nc(CN(C)[C@H]2CCCc3cccnc32)cc(NCCN2CCOCC2)n1` [Compound A71], in assay [2], the IC50 stood at 90 nM.

Take `Cc1nc(CN2CCC(C)C2c2ccccn2)cc(N2CCN(C)CC2)n1` (stereo not shown) [Compound C29]: in assay [2], the half-maximal inhibitory concentration (IC50) amounted to 1200 nM.

In assay [2], `Cc1nc(CN(C)C2CCCc3cccnc32)c(F)c(N2CCN(C)CC2)n1` (stereo not shown) [Compound A51] came in with a half-maximal inhibitory concentration (IC50) of 16 nM.

In the case of `Cc1nc(CN(C)[C@H]2CCCc3cccnc32)cc(N2CCN(C3COC3)CC2)n1` [Compound A49], in assay [2], the IC50 stood at 123 nM.

Take `CN1CCN(c2ccnc(CN(C)C3CCCc4cccnc43)n2)CC1` (stereo not shown) [Compound A50, N-methyl-N-((4-(4-methylpiperazin-1-yl)pyrimidin-2-yl)methyl)-5,6,7,8-tetrahydroquinolin-8-amine]: in assay [2], the half-inhibitory concentration (IC50) amounted to 211 nM.

In the case of `CCN1CCN(c2cc(CN(C)C3CCCc4cccnc43)ncn2)CC1` (stereo not shown) [Compound A23], the IC50 in assay [2] came out at 34 nM.

For `Cc1nc(CN(C)C(CCCNC(=O)OC(C)(C)C)c2ccccn2)cc(N2CCN(C)CC2)n1` (stereo not shown) [Compound A37], in assay [2], the half-inhibitory concentration (IC50) amounted to 4430 nM.

As to `Cc1nc(CN2CCCC2c2ccccn2)cc(N2CCN(C)CC2)n1` (stereo not shown) [Compound C12], the concentration for half-maximal inhibition (IC50) in assay [2] is 165 nM.

As to `Cc1nc([C@H]2CCN2[C@@H]2CCCc3cccnc32)cc(N2CCN(C)CC2)n1` [Compound C14], the IC50 in assay [2] came out at 8110 nM.

Molecule `CCN(Cc1cc(N2CCN(C)CC2)nc(C)n1)C1CCCc2cccnc21` (stereo not shown) [Compound A57] had an IC50 in assay [2] of 21 nM.

As for `Cc1nc([C@H]2CCN2[C@H]2CCCc3cccnc32)cc(N2CCN(C)CC2)n1` [Compound C13], the IC50 in assay [2] is 62 nM.
